Source: PMC9606171, “Synthetic PPAR Agonist DTMB Alleviates Alzheimer’s Disease Pathology by Inhibition of Chronic Microglial Inflammation in 5xFAD Mice” (Neurotherapeutics, 2022)

Assays:
[1] = test system: RAW 264.7 macrophage cells; assay: Griess assay, LPS-induced NO production; assay type: cell-based; conditions: LPS (1 µg/mL), 24 h
Method: Griess assay (Promega) was performed under manufacturer’s instruction to measure the concentration of nitrite after inducing the inflammatory response in RAW 264.7 macrophage cells by LPS treatment. The well-known PPAR selective agonists, such as WY14643 (PPARα), GW501516 (PPAR-β/δ), and rosiglitazone (PPARγ), were used as positive controls.

PPAR-β/δ = test system: PPAR-β/δ; set-up: method as in PMID 27802237; conditions: dual agonist of PPAR-β/δ and PPARγ; cited from earlier work

| SMILES | inhibition of NO production compared between DTMB and known PPAR agonists [1] | selectivity to PPAR-β/δ (PPAR-β/δ) [fold] |
| --- | --- | --- |
| Cc1cc(SCc2sc(-c3ccc(C(F)(F)F)cc3)nc2C)ccc1OCC(=O)O [GW501516, reference compound] | better inhibitor than DTMB |  |
| CCc1oc(-c2ccc(OC)cc2)nc1CCOc1ccc2c(c1)CC[C@H]2CC(=O)[O-].[Na+] [T3D-959] |  | 15 |
